From BindingDB's records for doi:10.7270/Q21Z42V4 (Burnham Center For Chemical Genomics, 2010)
pEC50: −log10 of the molar value.

Molecular target: Intestinal-type alkaline phosphatase (Mus musculus, UniProt P24822)
Assay: PubChem AID 488875

Sequence of Intestinal-type alkaline phosphatase (P24822 whole entry, looked up): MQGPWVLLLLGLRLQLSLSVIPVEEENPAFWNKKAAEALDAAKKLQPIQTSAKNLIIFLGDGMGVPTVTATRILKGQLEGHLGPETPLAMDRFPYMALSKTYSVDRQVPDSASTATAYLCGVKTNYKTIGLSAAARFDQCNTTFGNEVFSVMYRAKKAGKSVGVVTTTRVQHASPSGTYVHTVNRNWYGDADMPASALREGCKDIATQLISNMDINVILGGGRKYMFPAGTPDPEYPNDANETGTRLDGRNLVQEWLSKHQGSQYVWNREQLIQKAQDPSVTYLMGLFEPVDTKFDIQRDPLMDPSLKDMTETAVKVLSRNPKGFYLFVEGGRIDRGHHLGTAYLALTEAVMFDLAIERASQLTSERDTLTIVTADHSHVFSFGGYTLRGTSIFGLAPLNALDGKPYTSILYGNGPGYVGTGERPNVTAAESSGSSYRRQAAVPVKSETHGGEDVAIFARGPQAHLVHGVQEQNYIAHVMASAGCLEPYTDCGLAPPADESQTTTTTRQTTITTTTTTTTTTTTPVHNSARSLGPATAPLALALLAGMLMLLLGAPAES

| pEC50 | Structure (SMILES) |
| --- | --- |
| < 4.00 | Cn1c(C(C#N)C(=O)c2ccc(Br)s2)nc2ccccc21 (centres undefined) [MLS001167394] |
| < 4.00 | C=c1[nH]n(-c2nc3ccccc3[nH]2)c(=O)c1=CN(C)C [(4E)-2-(1H-benzimidazol-2-yl)-4-(dimethylaminomethylidene)-5-methyl-pyrazol-3-one] |
| < 4.00 | COc1cccc(C=NNC(=O)c2[nH][nH]c(=O)c2C)c1O [N'-[(E)-(5-methoxy-6-oxidanylidene-cyclohexa-2,4-dien-1-ylidene)methyl]-4-methyl-5-oxidanylidene-1,4-dihydropyrazole-3-carbohydrazide] |
| < 4.00 | CCc1ccc(CN=Nc2ncnc3nc[nH]c23)cc1 [MLS000419199] |
